Data set [1] is described as follows: Tmax in Cynomolgus monkey at 1 mg/kg, iv by reverse phase chromatography. It is filed as ADME, organism-based, Macaca fascicularis. The note with it: in vivo.
Data set [2] in a line: Half life in female mouse at 5 mg/kg, po by reverse phase chromatography. The format is ADME, organism-based. The note with it: in vivo.
Data set [3] in a line: AUC in female mouse at 1 mg/kg, iv by reverse phase chromatography. It is filed as ADME, organism-based. To be noted: in vivo.
A short description of data set [4]: Metabolic stability in dog liver microsome assessed as half life in presence of NADPH. The format is ADME, Canis lupus familiaris. The note with it: liver microsomes. On the technique in general: Microsomes from liver hold many membrane-bound enzymes, among them those of drug oxidation.
Data set [5] can be described thus: Toxicity in rat assessed as effect on respiratory endpoint at 1 to 9 mg/kg, po. The note with it: in vivo, dose 1-9 mg/kg. It is filed as organism-based.

For orientation: Tmax means the time at which the peak concentration occurs. One may read the half-life as the time in which the quantity being followed falls by half. The AUC is concentration integrated over time. For the compound `C[C@@]1(O)[C@H](O)[C@@H](CO)O[C@H]1c1coc2c(N)ncnc12`, the Tmax in data set [1] is 1.8 min. Further, the values for the half-life in data set [2] and in data set [4] were 16.6 h and over 1.67 h, respectively. The AUC in data set [3] came to 866 ng·h/mL. In addition, the Activity entry in data set [5] is reported as “Non-toxic”.

For the origin of these results see ChEMBL document CHEMBL6087385, “Synthesis and biological evaluation of Ribo 7-N/O/S pyrimidine 9-deaza C-nucleoside analogs as new antiviral agents for inhibiting HCV RNA-dependent RNA polymerases” (Eur J Med Chem, 2024).
